# Measurements reported in US11179348B2, “Combination comprising pterostilbene for the treatment of cancer” (FUNDACIÓN UNIVERSIDAD CATÓLICA DE VALENCIA SAN VICENTE …, priority 2015, dated 2021).
# Test system: HepG2 cells isolated from tumor-bearing mice
# Experiment: Chemosensitization of cultured HepG2 cells isolated from xenografts
# Type: cell-based, human
# Settings: 72 h-cultured, PL 0.2 μM, Chemo 0.15 μM DXR, Pter = in vivo pretreatment
# Experimental: FIGS. 18-25. Effect of piperlongumine and I-BET762, as GSH depleting and chemosensitizing agents, in in vitro growing human melanoma, pancreatic, breast, lung, liver, prostate, ovarian, and colorectal cancer cells. Cancer cells, isolated from Pter-treated tumor-bearing mice, were cultured as indicated under Methods. Chemotherapy (0.25 μM PAC.PBP in A2058 melanoma and MDA-MB-231 breast carcinoma cells; 0.125 μM PAC.PBP and 25 μM GTB in AsPC-1 pancreatic cancer cells; 1 μM VRB and 15 μM cisPt in A459 lung carcinoma cells; 0.15 μM DXR in HepG2 hepatocellular carcinoma cells; 15 nM DCT in PC-3 prostate carcinoma cells; 0.15 μM PAC.PBP and 25 μM CarboPt in SK-OV-3 ovarian carcinoma cells; 3 μM 5-FU, 1 μM FA and 0.6 μM IRI in HT-29 colorectal carcinoma cells) was added to the cultured flasks 24 h after seeding. […]
# Human A2058, MeWo and MelJuso melanoma cells, and mouse AtT-20 pituitary corticotroph tumor cells were from the American Type Culture Collection (ATCC). […] Cell numbers were determined using a Coulter Counter (Coulter Electronic Inc., Miami, Fla.). […] Cellular viability was assessed as previously reported (Mena, S. et al. Clin Cancer Res 13, 2658-2666 (2007)), by measuring trypan blue exclusion and leakage of lactate dehydrogenase activity. […]
smiles,measurement,value
"COc1cc(/C=C/c2ccc(O)cc2)cc(OC)c1 [Pter, trans-3,5-dimethoxy-4′-hydroxystilbene]",Viable cells,1580 ± 318 ×10^6
